Molecular target: almond β-glucosidase
Assay: glycosidase inhibition assay with p-nitrophenyl substrate, commercial (Sigma) enzyme
Assay type: biochemical, Prunus dulcis

IC50: 1 mM
Compound: NC1=NC[C@@H](CCNC(=O)c2cc3c(cn2)[nH]c2ccccc23)N1 [compound 1, (+)-(R)-Tiruchanduramine]

Reference: publication PMC8880061, “Synthesis of (+)-(R)-Tiruchanduramine” (Molecules, 2022)
